In brackets after ≈: the same amount, converted by molar mass.
Experiments:
[1] = Inhibition of IGFR
[2] = Ratio of IC50 for IR to IC50 for IGFR
[3] = Aqueous solubility at pH 7.4; type: physicochemical

## O=C1NC(=O)c2ccc(Nc3ccccc3Cl)cc2/C1=C/Nc1ccc(CN2CCCCC2)cc1
[1]
  IC50: 1660 nM

## O=C1NC(=O)c2ccc(-c3ccoc3)cc2/C1=C/Nc1ccc(CN2CCCCC2)cc1
[1]
  IC50: 715 nM
[2]
  Ratio IC50: 0.75

## CC(=O)c1cccc(Nc2ccc3c(c2)/C(=C/Nc2ccc(CN(C)C)cc2)C(=O)NC3=O)c1
[1]
  IC50: 887 nM
[2]
  Ratio IC50: 0.87

## COc1ccc(Nc2ccc3c(c2)/C(=C/Nc2ccc(CN(C)C)cc2)C(=O)NC3=O)cc1
[1]
  IC50: 566 nM
[2]
  Ratio IC50: 0.69

## N#Cc1ccccc1Nc1ccc2c(c1)/C(=C/Nc1ccc(CN3CCCCC3)cc1)C(=O)NC2=O
[1]
  IC50: 4200 nM

## O=C1NC(=O)c2ccc(Nc3cccc(Cl)c3)cc2/C1=C/Nc1ccc(CN2CCCCC2)cc1
[1]
  IC50: 2390 nM

## O=C1NC(=O)c2ccc(Br)cc2/C1=C/Nc1ccc(CN2CCCCC2)cc1
[1]
  IC50: 2890 nM

## COc1cccc(Nc2ccc3c(c2)/C(=C/Nc2ccccc2)C(=O)NC3=O)c1
[1]
  IC50: > 10000 nM

## CC1CN(c2ccc(N/C=C3\C(=O)NC(=O)c4ccc(-c5ccoc5)cc43)cc2)CC(C)N1 (stereo unspecified)
[1]
  IC50: 629 nM
[2]
  Ratio IC50: 1

## O=C1NC(=O)c2ccc(Nc3cccc4ncccc34)cc2/C1=C/Nc1ccc(CN2CCCCC2)cc1
[1]
  IC50: 5200 nM

## Cc1ccccc1Nc1ccc2c(c1)/C(=C/Nc1ccc(CN3CCCCC3)cc1)C(=O)NC2=O
[1]
  IC50: 4140 nM

## Cc1ccc(Nc2ccc3c(c2)/C(=C/Nc2ccc(CN4CCCCC4)cc2)C(=O)NC3=O)cc1
[1]
  IC50: 498 nM
[2]
  Ratio IC50: 1.14

## COc1cc(Nc2ccc3c(c2)/C(=C/Nc2ccc(CN4CCCCC4)cc2)C(=O)NC3=O)cc(C(F)(F)F)c1
[1]
  IC50: > 10000 nM

## O=C1NC(=O)c2ccc(Nc3cccc(C(F)(F)F)c3)cc2/C1=C/Nc1ccc(CN2CCCCC2)cc1
[1]
  IC50: > 10000 nM

## CCN(CC)Cc1ccc(N/C=C2\C(=O)NC(=O)c3ccc(Nc4ccc(C)cc4)cc32)cc1
[1]
  IC50: 1160 nM
[2]
  Ratio IC50: 0.64

## N#Cc1cccc(Nc2ccc3c(c2)/C(=C/Nc2ccc(CN4CCCCC4)cc2)C(=O)NC3=O)c1
[1]
  IC50: 1130 nM

## O=C1NC(=O)c2ccc(Nc3ccc4c(c3)OCO4)cc2/C1=C/Nc1ccc(CN2CCCCC2)cc1
[1]
  IC50: 894 nM

## O=C1NC(=O)c2ccc(Nc3ccc4c(c3)CCC4)cc2/C1=C/Nc1ccc(CN2CCCCC2)cc1
[1]
  IC50: 7930 nM

## Nc1cccc(Nc2ccc3c(c2)/C(=C/Nc2ccc(CN4CCCCC4)cc2)C(=O)NC3=O)c1
[1]
  IC50: > 10000 nM

## CC(=O)c1cccc(Nc2ccc3c(c2)/C(=C/Nc2ccc(N4CCN(C)CC4)cc2)C(=O)NC3=O)c1
[1]
  IC50: 319 nM
[3]
  solubility: 1000 µg/mL (≈ 2020 µM)
[2]
  Ratio IC50: 1.6

## O=C1NC(=O)c2ccc(Br)cc2/C1=C/Nc1ccc(CN2CCCC2)cc1
[1]
  IC50: 2420 nM

## COc1ccccc1Nc1ccc2c(c1)/C(=C/Nc1ccc(CN3CCCCC3)cc1)C(=O)NC2=O
[1]
  IC50: 610 nM

## O=C1NC(=O)c2ccc(Nc3cccc(Cl)c3)cc2/C1=C/Nc1ccccc1
[1]
  IC50: > 10000 nM

## O=C1NC(=O)c2ccc(Nc3ccc4[nH]ccc4c3)cc2/C1=C/Nc1ccc(CN2CCCCC2)cc1
[1]
  IC50: > 10000 nM

## CC(=O)c1cccc(Nc2ccc3c(c2)/C(=C/Nc2ccc(N4CC(C)NC(C)C4)cc2)C(=O)NC3=O)c1 (stereo unspecified)
[1]
  IC50: 540 nM
[2]
  Ratio IC50: 0.85

## Cc1cccc(Nc2ccc3c(c2)/C(=C/Nc2ccc(CN4CCCCC4)cc2)C(=O)NC3=O)c1
[1]
  IC50: > 10000 nM

## O=C1NC(=O)c2ccc(Nc3ccc(Cl)cc3)cc2/C1=C/Nc1ccc(CN2CCCCC2)cc1
[1]
  IC50: > 10000 nM

## CCOC(=O)c1ccc(Nc2ccc3c(c2)/C(=C/Nc2ccc(CN4CCCCC4)cc2)C(=O)NC3=O)cc1
[1]
  IC50: > 10000 nM

## CC(=O)c1cccc(Nc2ccc3c(c2)/C(=C/Nc2ccc(CN4CCCCC4)cc2)C(=O)NC3=O)c1
[1]
  IC50: 438 nM
[2]
  Ratio IC50: 0.72

## NC(=O)c1ccc(Nc2ccc3c(c2)/C(=C/Nc2ccc(CN4CCCCC4)cc2)C(=O)NC3=O)cc1
[1]
  IC50: 957 nM

## CN1CCN(c2ccc(N/C=C3\C(=O)NC(=O)c4ccc(NS(=O)(=O)c5ccccc5)cc43)cc2)CC1
[1]
  IC50: 829 nM
[2]
  Ratio IC50: 0.83

## O=C1NC(=O)c2ccc(Nc3ccccc3)cc2/C1=C/Nc1ccc(CN2CCCCC2)cc1
[1]
  IC50: 455 nM
[2]
  Ratio IC50: 0.87

## CN(C)Cc1ccc(N/C=C2\C(=O)NC(=O)c3ccc(Br)cc32)cc1
[1]
  IC50: 7170 nM
[2]
  Ratio IC50: 0.58

## COc1cccc(Nc2ccc3c(c2)/C(=C/Nc2ccc(CN4CCCCC4)cc2)C(=O)NC3=O)c1
[1]
  IC50: 1080 nM

## COc1cccc(Nc2ccc3c(c2)/C(=C/Nc2ccc(CN(C)C)cc2)C(=O)NC3=O)c1
[1]
  IC50: 1390 nM
[2]
  Ratio IC50: 0.48

## N#Cc1ccc(Nc2ccc3c(c2)/C(=C/Nc2ccc(CN4CCCCC4)cc2)C(=O)NC3=O)cc1
[1]
  IC50: 1330 nM

## CC(=O)c1ccc(Nc2ccc3c(c2)/C(=C/Nc2ccc(CN4CCCCC4)cc2)C(=O)NC3=O)cc1
[1]
  IC50: 5890 nM

## CN(C)c1ccc(Nc2ccc3c(c2)/C(=C/Nc2ccc(CN4CCCCC4)cc2)C(=O)NC3=O)cc1
[1]
  IC50: > 10000 nM

## CN(C)Cc1ccc(N/C=C2\C(=O)NC(=O)c3ccc(Nc4ccccc4)cc32)cc1
[1]
  IC50: 920 nM
[2]
  Ratio IC50: 0.62

## COc1ccc(Nc2ccc3c(c2)/C(=C/Nc2ccc(CN4CCCCC4)cc2)C(=O)NC3=O)cc1
[1]
  IC50: 971 nM

## O=C1NC(=O)c2ccc(Nc3cccc(F)c3)cc2/C1=C/Nc1ccc(CN2CCCCC2)cc1
[1]
  IC50: 2630 nM
